Here are results for 18 compounds from patent EP4711361A1, “NITROGEN-CONTAINING HETEROCYCLIC COMPOUND AND USE THEREOF” (Jiangsu Deyuan Pharmaceutical Co.,Ltd., priority 2023, dated 2024).

Series [1] relates to patients with resistant hypertension. To be noted: cited from earlier work.
Series [2] has as its target T1, human CYP11B1 (Homo sapiens, UniProt P15538).
T1 construct: expressed in transfected cells; host or cells: human renal leiomyoma G402 cells (monoclonal)
T1 sequence (P15538 25-503): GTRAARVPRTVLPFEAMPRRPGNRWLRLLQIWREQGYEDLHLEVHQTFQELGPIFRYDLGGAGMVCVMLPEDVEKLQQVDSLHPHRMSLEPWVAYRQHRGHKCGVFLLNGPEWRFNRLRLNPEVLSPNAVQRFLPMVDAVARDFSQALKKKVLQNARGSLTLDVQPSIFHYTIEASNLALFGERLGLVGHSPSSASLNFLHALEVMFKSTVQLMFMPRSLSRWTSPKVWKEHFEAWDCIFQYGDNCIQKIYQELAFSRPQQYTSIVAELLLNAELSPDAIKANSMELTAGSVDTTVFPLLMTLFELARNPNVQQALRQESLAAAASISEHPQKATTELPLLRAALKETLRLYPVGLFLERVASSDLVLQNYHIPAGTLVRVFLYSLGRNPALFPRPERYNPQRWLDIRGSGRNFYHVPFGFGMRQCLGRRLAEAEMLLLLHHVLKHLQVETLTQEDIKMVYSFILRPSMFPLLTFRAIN
As to the kind of experiment: In vitro activity assay of monoclonal cells overexpressing human CYP11B1. Format: cell-based. The following applies: G402 cells overexpressing human CYP11B1; 1 µM 11-deoxycortisol, 16 hours; cortisol by LC-MS/MS. Here is the method: The human renal leiomyoma G402 cell line overexpressing human CYP11B1 was selected to serve as a compound selectivity screening system.
Day 1: Cells were digested, and human renal leiomyoma G402 cells overexpressing CYP11B1 were resuspended to 1×10^5 cells/mL, with 100 µL seeded into a 96-well plate.
(§1) Day 3: The cell supernatant was collected and added to 200 µL of a methanol solution containing internal standards (internal standards: 35 ng/mL ketoprofen or 7.5 ng/mL carbamazepine or 5 ng/mL diphenhydramine or 10 ng/mL tolbutamide). The mixture was vortexed and centrifuged (4000×g, 4°C, 5 minutes). Then, 100 µL of the supernatant was taken and mixed with 100 µL of pure water.
Ratio = Cortisol peak area/Internal standard peak area [formula] Control activity% = (Ratiotestcompound/RatioDMSO) × 100% [formula]
(§2) "Ratio test compound" represents the Ratio values at different concentrations of the test compound.
(§3) "Ratio DMSO" represents the Ratio value without the addition of the test compound. • X = Log (compound concentration) • Y = Control activity%
The IC50 of the test compound was determined by fitting to a nonlinear regression equation using XLfit 5.5.0. Table 4: Results for in vitro activity assay of monoclonal cells overexpressing human CYP11B1

For series [3], the target named is T2, human CYP11B2 (Homo sapiens, UniProt P19099).
T2 construct: expressed in transfected cells; host or cells: human renal leiomyoma G402 cells (monoclonal)
T2 sequence (P19099 25-503): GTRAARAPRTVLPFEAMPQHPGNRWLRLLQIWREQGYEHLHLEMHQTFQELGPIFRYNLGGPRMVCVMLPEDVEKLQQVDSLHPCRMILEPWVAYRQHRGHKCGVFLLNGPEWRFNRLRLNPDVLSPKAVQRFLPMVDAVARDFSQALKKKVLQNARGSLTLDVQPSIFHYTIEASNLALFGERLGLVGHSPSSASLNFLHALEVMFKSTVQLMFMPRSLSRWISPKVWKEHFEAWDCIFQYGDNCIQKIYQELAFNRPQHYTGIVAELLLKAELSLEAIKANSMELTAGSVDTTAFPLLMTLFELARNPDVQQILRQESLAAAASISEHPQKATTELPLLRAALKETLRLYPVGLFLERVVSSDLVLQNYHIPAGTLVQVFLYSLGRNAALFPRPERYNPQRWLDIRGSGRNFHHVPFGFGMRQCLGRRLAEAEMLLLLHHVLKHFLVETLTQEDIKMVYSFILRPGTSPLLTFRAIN
The series can be described thus: In vitro activity assay of monoclonal cells overexpressing human CYP11B2. Format: cell-based. The following applies: G402 cells overexpressing human CYP11B2; 1 µM 11-deoxycorticosterone, 16 hours; aldosterone by LC-MS/MS. Here is the method: The human renal leiomyoma G402 cell line overexpressing human CYP11B2 was selected to serve as a compound activity screening system. Table 1: Cell and reagent information
2) Compound details: The test compound was prepared as a 10 µM working concentration using DMSO. 3) Experimental procedure
Day 1: Cells were digested, and human renal leiomyoma G402 cells overexpressing human CYP11B2 were resuspended to 1×10^5 cells/mL, with 100 µL seeded into a 96-well plate.
as §1
Ratio = Aldosterone peak area/Internal standard peak area [formula] Control activity% = (Ratiotestcompound/RatioDMSO) × 100% [formula]
as §2, §3
The IC50 of the test compound was determined by fitting to a nonlinear regression equation using XLfit 5.5.0. Table 3: Results for in vitro activity assay of monoclonal cells overexpressing human CYP11B2

The subject of series [4] is MDR1-MDCKII cells. The series can be described thus: Permeability test (MDR1-MDCKII monolayer, bidirectional transport). The following applies: 2 µM; for Efflux ratio (ER): ER = Papp (BA)/ Papp (AB), 150 min; for Apparent permeability coefficient (Papp (AB), 10^-6 cm/s): pH 7.40, 2.5 hours, A to B. Format: in vitro ADME. Here is the method:
(§4) Experimental objective: The permeability and efflux ratio of the compound of the present disclosure were determined using the MDR1-MDCKII monolayer cell model to assess its membrane permeability and potential for P-gp-mediated efflux transport.
(§5) Experimental protocol: MDR1-MDCKII cells (obtained from the Netherlands Cancer Institute) were seeded in 96-well plates (obtained from Corning) at a cell density of 3.33 × 10^5 cells/mL and cultured for 4 to 7 days to form confluent cell monolayers. Hank's balanced salt solution containing 10 mM HEPES (pH 7.40) was used as the transport buffer. The test compound was evaluated for bidirectional transport at a concentration of 2 µM, with the DMSO concentration in the incubation system maintained below 1%. After adding the samples, the cell plate was incubated at 37±1°C, 5% CO2, and saturated humidity for 2.5 hours. All samples were quantitatively analyzed using the LC-MS/MS method. The apparent permeability coefficient (Papp, cm/s) and efflux ratio (ER) were calculated using the following formula. Apparent permeability coefficient (Papp, cm/s) was calculated using the following formula: Papp = (dCr/dt) x Vr / (A x C0). Herein, dCr/dt represents the cumulative concentration of the compound at the receiving end per unit time (µM/s); Vr is the volume of the solution at the receiving end (with solution volumes at the apical and basolateral ends being 0.075 mL and 0.250 mL, respectively); A is the relative surface area of the cell monolayer (0.143 cm^2); C0 is the initial concentration of the test substance at the dosing end (µM) or the peak area ratio of the reference substance. The efflux ratio was calculated using the following formula: ER = Papp (BA)/ Papp (AB). Table 7: Permeability test results of compounds

Series [5] in a line: in vitro. To be noted: rat, plasma.
Series [6] is described as follows: in vitro. To be noted: cynomolgus monkey, plasma.
A short description of series [7]: in vitro. To be noted: human, microsomes.
Series [8] in a line: Permeability test (MDR1-MDCKII monolayer, bidirectional transport). Format: in vitro ADME. The following applies: dog; for efflux ratio at 2.5 h, 2 µM: MDCK-MDR1, pH 7.4, ER = Papp (BA)/ Papp (AB); for Papp A→B at 2.5 h, 2 µM: MDCK-MDR1, pH 7.4, pH 7.40, 2.5 hours, A to B, read-out: Apparent permeability coefficient (Papp (AB), 10^-6 cm/s). Here is the method:
as §4, §5

Series [9] in a line: in vitro. To be noted: human, plasma.
[10] abbreviates: 2 mg dose, patients with resistant hypertension.

Structures are written as SMILES.

As for `CCC(=O)N[C@@H]1CCCc2c(-c3ccc4c(c3)CCC(=O)N4C)cncc21` [Baxdrostat], in series [1] (setting [10]), the “office systolic and diastolic blood pressure” value is “demonstrated efficacy”; the safety and tolerability entry was “favorable safety and tolerability profiles”. In addition, in series [1] (clinical studies), the aldosterone secretion levels entry is listed as “dose-dependent reduction” and the blood pressure result is “dose-dependent reduction”. Also, in series [1] (phase 2 trials), the blood pressure reduction result was “significant blood pressure reduction”, the cortisol levels result is “no impact on cortisol levels”, the elevated blood potassium entry is reported as “rare occurrence of elevated blood potassium” and the steroid precursor accumulation entry was “absence of steroid precursor accumulation”.

As usually defined, the IC50 is the concentration at which inhibition is half-maximal. High values mean weaker potency, low ones greater potency. With `CCC(=O)NC1CCCc2c(-c3cc(F)c4c(c3)OCC(=O)N4C)cncc21` (single isomer, unassigned) [Compound 031], the IC50 in series [2] is 4740 nM; in series [3] it was 22.6 nM. Also, the “Efflux ratio (ER)” value in series [4] is listed as 0.89. Besides, the “Apparent permeability coefficient (Papp (AB), 10^-6 cm/s)” value (“Apparent permeability coefficient” below) in series [4] was 20.0 10^-6 cm/s.

In series [3], `Cc1noc(C)c1C(=O)NC1CCCc2c(-c3ccc4c(ccc(=O)n4C)c3)cncc21` (single isomer, unassigned) [Compound 015] displayed an IC50 of 31.8 nM. This counts as double-digit nanomolar.

Regarding `CCC(=O)NC1CCCc2c(-c3nc4ccc(=O)n(C)c4s3)cncc21` (single isomer, unassigned) [Compound 041], the IC50 was found to be 6750 nM in series [2] and 42.2 nM in series [3].

`Cn1c(=O)ccc2cc(-c3cncc4c3CCC[C@H]4NC(=O)c3ncccc3Cl)ccc21` (single isomer, unassigned) [Compound 014] showed an IC50 in series [3] of 20.6 nM.

Compound `CCC(=O)NC1CCCc2c(-c3ccc4c(c3)C3CC3C(=O)N4C)cncc21` (single isomer, unassigned) [Compound 025] yielded an IC50 in [3] of 65.5 nM.

Regarding `CCC(=O)NC1CCCc2c(-c3cc4c(cc3F)N(C)C(=O)CO4)cncc21` (single isomer, unassigned) [Compound 032], the IC50 in series [2] worked out at 5650 nM; in series [3], 30.1 nM. Moreover, the “Efflux ratio (ER)” value in series [4] is listed as 0.86. In addition, the “Apparent permeability coefficient” value in [4] is 22.6 10^-6 cm/s.

Regarding `CCC(=O)NC1CCCc2c(-c3ccc4c(c3)OCC(=O)N4C)cncc21` (single isomer, unassigned) [Compound 011], the values for the IC50 in series [2] and in series [3] were 6910 nM and 59.7 nM, respectively. Moreover, in series [4], the “Efflux ratio (ER)” value was found to be 0.89. Further, in [4], the “Apparent permeability coefficient” value is listed as 24.3 10^-6 cm/s.

Compound `CCC(=O)NC1CCOc2c(-c3cc4ccc(=O)n(C)c4s3)cncc21` (single isomer, unassigned) [Compound 045] had an IC50 in series [2] of 34900 nM. The compound further yielded a half-inhibitory concentration (IC50) in series [3] of 42.7 nM. In addition, in [4], the “Efflux ratio (ER)” value was 1.30 and the “Apparent permeability coefficient” value is 16.7 10^-6 cm/s.

With `CCC(=O)NC1CCCc2c(-c3ccc4c(ccc(=O)n4C)c3Cl)cncc21` (single isomer, unassigned) [Compound 042], the IC50 in [3] is 41 nM.

In the case of `CCC(=NOC)NC1CCCc2c(-c3ccc4c(c3)CCC(=O)N4C)cncc21` (single isomer, unassigned) [Compound 005], the midpoint of inhibition in [2], the IC50, lay at 1420 nM. In series [3], this compound came in with an IC50 of 19.5 nM. In series [4], the “Efflux ratio (ER)” value amounted to 0.70 and the “Apparent permeability coefficient” value is listed as 23.1 10^-6 cm/s.

As to `CCC(=O)NC1CCN(C2CCCc3c(-c4ccc5c(ccc(=O)n5C)c4)cncc32)CC1` (single isomer, unassigned) [Compound 030], the figures for the IC50 in series [2] and in series [3] were 2180 nM and 48.7 nM, respectively.

A word on the fraction unbound: it is the share of the substance not bound to proteins or other matrix. High values mean much free substance, low ones little free substance. Broadly, the CLint scaled is the rate of metabolic loss divided by the concentration. Higher therefore signals faster metabolism. For orientation: efflux ratio means a quotient of directional permeabilities that is used to spot active efflux. As to `Cc1noc(C)c1C(=O)NC1CCCc2c(-c3cc4ccc(=O)n(C)c4cc3F)cncc21` (single isomer, unassigned) [Compound 020], the fraction unbound at 4 h, 2 µM in [5] is 0.083; in [6], 0.097; in [9], 0.144. Further, the IC50 in series [2] is 1130 nM; in [3] it was 25.5 nM. The compound also registered a CLint scaled at 1 µM in series [7] of 12.9 mL/min/kg. In addition, in series [8], the efflux ratio at 2.5 h, 2 µM was found to be 2.47. Moreover, the Papp A→B at 2.5 h, 2 µM in series [8] amounted to 14 ×10⁻⁶ cm/s.

Take `CCC(=O)NC1CCCc2c(-c3ccc4c(c3)OCC(=O)N4C)cncc21` (single isomer, unassigned) [Compound 010]: the IC50 was 6880 nM in series [2] and 71.5 nM in series [3].

On to `CCC(=O)NC1CCOc2c(-c3ccc4c(ccc(=O)n4C)c3)cncc21` (single isomer, unassigned) [Compound 044], for which the fraction unbound at 4 h, 2 µM is 0.024 in series [5], 0.336 in [6] and 0.295 in series [9]. The figures for the IC50 in [2] and in series [3] were 19500 nM and 32.9 nM, respectively. Further, in series [8], the efflux ratio at 2.5 h, 2 µM came to 2.46. Moreover, in series [8], the Papp A→B at 2.5 h, 2 µM is 11 ×10⁻⁶ cm/s.

In series [2], `CCC(=O)NC1CCOc2c(-c3cc4c(s3)N(C)C(=O)CC4)cncc21` (single isomer, unassigned) [Compound 046] yielded an IC50 of 1570 nM. In [3], this compound came in with an IC50 of 13.3 nM. Also, in [4], the “Efflux ratio (ER)” value is 1.17 and the “Apparent permeability coefficient” value is on record as 18.0 10^-6 cm/s.

In the case of `CCC(=O)NC1CCc2c(-c3ccc4c(ccc(=O)n4C)c3)cncc21` (single isomer, unassigned) [Compound 048], the results for the IC50 in series [2] and in [3] were 2490 nM and 7.02 nM, respectively.

The compound `CCS(=O)(=O)N1CC(Oc2cncc(-c3ccc4c(c3)OCC(=O)N4C)c2)C1` [Compound 016] gave an IC50 in series [3] of 63.6 nM.
